Measurements from article PMC7157763, “Synergy between Cell Surface Glycosidases and Glycan-Binding Proteins Dictates the Utilization of Specific Beta(1,3)-Glucans by Human Gut Bacteroides” (mBio, 2020).

Columns and labels:
BuGH3 [1] = target: T1, BuGH3 (Bacteroides uniformis, UniProt A0ABC9NEJ2); assay: continuous glucose release assay (hexokinase kit); type: biochemical; conditions: oligosaccharide hydrolysis, exo-acting
T1 construct: gene BACUNI_01484; signal peptide and lipidation Cys excluded; N-terminal His6 tag (pET28a); E. coli BL21(DE3)
T1 sequence (A0ABC9NEJ2 20-750): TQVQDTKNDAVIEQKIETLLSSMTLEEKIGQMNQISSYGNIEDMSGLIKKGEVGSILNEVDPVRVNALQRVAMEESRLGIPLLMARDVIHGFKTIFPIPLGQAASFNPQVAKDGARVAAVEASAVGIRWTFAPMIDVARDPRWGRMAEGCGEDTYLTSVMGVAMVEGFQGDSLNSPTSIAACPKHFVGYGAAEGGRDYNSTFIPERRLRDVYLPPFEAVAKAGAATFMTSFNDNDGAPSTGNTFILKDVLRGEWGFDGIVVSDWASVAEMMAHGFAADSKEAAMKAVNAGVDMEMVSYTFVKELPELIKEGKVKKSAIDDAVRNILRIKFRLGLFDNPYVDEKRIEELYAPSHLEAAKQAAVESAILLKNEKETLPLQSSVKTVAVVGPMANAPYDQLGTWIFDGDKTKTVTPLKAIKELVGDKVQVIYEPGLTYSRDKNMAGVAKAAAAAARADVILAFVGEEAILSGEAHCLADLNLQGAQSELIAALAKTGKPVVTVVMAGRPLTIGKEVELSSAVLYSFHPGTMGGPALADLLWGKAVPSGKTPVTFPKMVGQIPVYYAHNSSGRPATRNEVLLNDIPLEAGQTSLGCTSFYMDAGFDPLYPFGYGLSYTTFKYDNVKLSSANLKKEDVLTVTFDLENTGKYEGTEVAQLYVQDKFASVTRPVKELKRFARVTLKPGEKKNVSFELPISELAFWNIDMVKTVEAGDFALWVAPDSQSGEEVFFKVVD

BuGH158 = target: T2, BuGH158 (Bacteroides uniformis, UniProt A0ABC9NDZ5); assay: 1H-NMR of hydrolysis (anomer stereochemistry); type: biochemical; conditions: 50 mM sodium phosphate pH 7.0 in D2O; 20 μM enzyme, 10 mM substrate; retaining
T2 construct: gene BACUNI_01485; signal peptide and lipidation Cys excluded; N-terminal His6 tag (pMCSG53); E. coli BL21(DE3)
T2 sequence (A0ABC9NDZ5 19-429 limits assumed): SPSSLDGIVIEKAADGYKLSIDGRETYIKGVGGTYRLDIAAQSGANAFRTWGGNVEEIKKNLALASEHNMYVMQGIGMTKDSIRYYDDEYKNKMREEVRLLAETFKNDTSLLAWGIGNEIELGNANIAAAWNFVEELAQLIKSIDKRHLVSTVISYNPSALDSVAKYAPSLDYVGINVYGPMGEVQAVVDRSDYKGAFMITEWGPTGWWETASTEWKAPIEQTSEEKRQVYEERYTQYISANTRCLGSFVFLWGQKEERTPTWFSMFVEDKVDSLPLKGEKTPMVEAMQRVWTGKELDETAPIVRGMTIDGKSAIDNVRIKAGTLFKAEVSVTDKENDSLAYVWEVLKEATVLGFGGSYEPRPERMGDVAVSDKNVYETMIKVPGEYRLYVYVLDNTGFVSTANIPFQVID

BuGH3 [2] = target: T1, BuGH3; assay: continuous glucose release assay (hexokinase kit); type: biochemical; conditions: oligosaccharide hydrolysis, exo-acting; remark: listed apart in the source
BuSGBP-B = target: T3, BuSGBP-B (Bacteroides uniformis, UniProt A0ABC9NE57); assay: isothermal titration calorimetry; type: binding; conditions: 25 °C; single-site model
T3 construct: gene BACUNI_01487; signal peptide and lipidation Cys excluded; N-terminal His6 or His6-GST tag (pMCSG53 or pMCSG-GST); E. coli BL21(DE3)
T3 sequence (A0ABC9NE57 22-457): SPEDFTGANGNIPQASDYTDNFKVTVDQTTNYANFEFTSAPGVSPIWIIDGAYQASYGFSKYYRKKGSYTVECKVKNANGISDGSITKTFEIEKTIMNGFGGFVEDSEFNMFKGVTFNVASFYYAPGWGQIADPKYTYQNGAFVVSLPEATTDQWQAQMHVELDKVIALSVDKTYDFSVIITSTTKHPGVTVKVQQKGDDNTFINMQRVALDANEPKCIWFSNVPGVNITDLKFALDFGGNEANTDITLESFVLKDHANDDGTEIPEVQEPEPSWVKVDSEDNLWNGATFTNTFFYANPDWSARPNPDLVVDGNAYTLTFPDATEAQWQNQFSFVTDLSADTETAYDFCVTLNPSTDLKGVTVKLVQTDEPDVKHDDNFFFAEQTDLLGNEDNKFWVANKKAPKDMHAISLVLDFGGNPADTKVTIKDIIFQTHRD

| Structure (SMILES) | kcat/Km (BuGH3 [1]) | 1H-NMR of hydrolysis (anomer stereochemistry) (BuGH158) | Km (BuGH3 [2]) | Ka (BuSGBP-B) |
| --- | --- | --- | --- | --- |
| OC[C@H]1O[C@@H](OC[C@H]2OC(O)[C@H](O)[C@@H](O)[C@@H]2O)[C@H](O)[C@@H](O)[C@@H]1O (stereo partly shown) [G6G, gentiobiose] | kcat/Km value for laminaribiose (G3G) over cellobiose (G4G) and gentiobiose (G6G) |  |  |  |
| O=[N+]([O-])c1ccc(O[C@@H]2O[C@H](CO)[C@@H](O)[C@H](O[C@@H]3O[C@H](CO)[C@@H](O)[C@H](O)[C@H]3O)[C@H]2O)c(Cl)c1 [G3G-CNP, 2-chloro-4-nitrophenyl laminaribioside] |  | NMR analysis of the hydrolysis of 2-chloro-4-nitrophenyl laminaribioside (G3G-CNP) |  |  |
| OC[C@H]1O[C@@H](O[C@H]2[C@H](O)[C@@H](CO)OC(O)[C@@H]2O)[C@H](O)[C@@H](O)[C@@H]1O (stereo partly shown) [G3G, laminaribiose] |  |  | Km values decreased between the di- and trisaccharide |  |
| OC[C@H]1O[C@@H](O[C@@H]2[C@@H](O)[C@H](O[C@H]3[C@H](O)[C@@H](CO)OC(O)[C@@H]3O)O[C@H](CO)[C@H]2O)[C@H](O)[C@@H](O)[C@@H]1O (stereo partly shown) [G3G3G, laminaritriose] |  |  | Km values decreased between the di- and trisaccharide | The smallest laminari-oligosaccharide bound by BuSGBP-B was the trisaccharide (G3G3G) |
| OC[C@H]1O[C@@H](O[C@H]2[C@H](O)[C@@H](O)C(O)O[C@@H]2CO)[C@H](O)[C@@H](O)[C@@H]1O (stereo partly shown) [G4G, cellobiose] | kcat/Km value for laminaribiose (G3G) over cellobiose (G4G) and gentiobiose (G6G) |  |  |  |
| OC[C@H]1O[C@@H](O[C@@H]2[C@@H](O)[C@H](O[C@@H]3[C@@H](O)[C@H](O[C@H]4[C@H](O)[C@@H](CO)OC(O)[C@@H]4O)O[C@H](CO)[C@H]3O)O[C@H](CO)[C@H]2O)[C@H](O)[C@@H](O)[C@@H]1O (stereo partly shown) [G3G3G3G, laminaritetraose] |  |  | after which Km values leveled off | affinity increased with degree of polymerization |
| OC[C@H]1O[C@@H](O[C@@H]2[C@@H](O)[C@H](O[C@@H]3[C@@H](O)[C@H](O[C@@H]4[C@@H](O)[C@H](O[C@H]5[C@H](O)[C@@H](CO)OC(O)[C@@H]5O)O[C@H](CO)[C@H]4O)O[C@H](CO)[C@H]3O)O[C@H](CO)[C@H]2O)[C@H](O)[C@@H](O)[C@@H]1O (stereo partly shown) [G3G3G3G3G, laminaripentaose] |  |  | after which Km values leveled off | affinity increased with degree of polymerization |
